Columns and labels:
[1] = molecular target: GDP-bound HRAS wild-type protein (Homo sapiens, UniProt P01112); test: Binding to HRAS by surface plasmon resonance (SPR), Single Cycle Kinetics; settings: SPR, GDP-bound HRAS wild-type protein vs GDP-bound KRAS wild-type protein
[2] = molecular target: GDP-bound NRAS wild-type protein (Homo sapiens, UniProt P01111); test: Binding to NRAS by surface plasmon resonance (SPR), Single Cycle Kinetics; settings: SPR, GDP-bound NRAS wild-type protein vs GDP-bound KRAS wild-type protein
Chain of GDP-bound NRAS wild-type protein (P01111 whole entry): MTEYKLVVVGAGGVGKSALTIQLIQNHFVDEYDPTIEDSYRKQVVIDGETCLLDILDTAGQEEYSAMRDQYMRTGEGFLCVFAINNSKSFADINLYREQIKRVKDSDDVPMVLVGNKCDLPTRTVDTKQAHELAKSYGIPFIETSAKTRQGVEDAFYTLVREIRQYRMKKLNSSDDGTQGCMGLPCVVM

[3] = molecular target: GDP-bound KRAS wild-type protein (Homo sapiens, UniProt P01116); test: Binding to KRAS by surface plasmon resonance (SPR), Single Cycle Kinetics; settings: SPR, Single Cycle Kinetics, GDP-bound KRAS wild-type protein; read-out: KRAS KD
Chain of GDP-bound KRAS wild-type protein (P01116 whole entry): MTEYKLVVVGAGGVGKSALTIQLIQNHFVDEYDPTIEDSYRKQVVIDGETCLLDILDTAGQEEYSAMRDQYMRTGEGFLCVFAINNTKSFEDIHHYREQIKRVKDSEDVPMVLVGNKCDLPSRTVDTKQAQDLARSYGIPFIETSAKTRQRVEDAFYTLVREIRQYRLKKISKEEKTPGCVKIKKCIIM

Chain of GDP-bound HRAS wild-type protein (P01112 whole entry): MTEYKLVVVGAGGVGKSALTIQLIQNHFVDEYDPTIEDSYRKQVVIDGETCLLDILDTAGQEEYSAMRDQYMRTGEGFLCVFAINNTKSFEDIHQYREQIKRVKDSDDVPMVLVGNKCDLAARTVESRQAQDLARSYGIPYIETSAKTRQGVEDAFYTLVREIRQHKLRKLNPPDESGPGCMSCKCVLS

| Structure (SMILES) | HRAS/KRAS (ratio of KD value for HRAS to KD value for KRAS) [1] | NRAS/KRAS (ratio of KD value for NRAS to KD value for KRAS) [2] | Kd [3] [nM] |
| --- | --- | --- | --- |
| CCC[C@H]1C(=O)N[C@@H](C2CCCC2)C(=O)N(C)CC(=O)N(C)[C@H]2C/C=C\CCN(C2=O)[C@@H](Cc2ccc(C)cc2)C(=O)N(C)CC(=O)N[C@@H](CCc2cc(F)c(C(F)(F)F)c(F)c2)C(=O)N2CC3(CC3)C[C@H]2C(=O)NC2(CC(C)(C)C2)C(=O)N(C)[C@@H](CC(C)(C)C)C(=O)N(C)[C@H](C(=O)N(C)C)CC(=O)N1C [PP2999] | A (a compound having 10 or more and less than 20 is denoted as A) | AA (a compound having 20 or more is denoted as AA) | 0.13 |
| CCC[C@H]1C(=O)N[C@@H](C2CCOCC2)C(=O)N(C)CC(=O)N(C)[C@H]2C/C=C\CCN(C2=O)[C@@H](Cc2ccc(C(F)(F)F)cc2)C(=O)N(C)CC(=O)N[C@@H](CCc2ccc(C(F)(F)F)c(Cl)c2)C(=O)N2C[C@H](OCC)C[C@H]2C(=O)NC2(CC(C)(C)C2)C(=O)N(C)[C@@H](C2CCCC2)C(=O)N(C)[C@H](C(=O)N(C)C)CC(=O)N1C [PP3000] | A (a compound having 10 or more and less than 20 is denoted as A) | AA (a compound having 20 or more is denoted as AA) | 1.3 |
| CCC[C@H]1C(=O)N[C@@H]([C@@H](C)CC)C(=O)N(C)CC(=O)N(C)[C@H]2C/C=C\CCN(C2=O)[C@@H](Cc2ccc(C)cc2)C(=O)N(C)CC(=O)N[C@@H](CCc2cc(F)c(C(F)(F)F)c(F)c2)C(=O)N2CC3(CC3)C[C@H]2C(=O)NC2(CC(C)(C)C2)C(=O)N(C)[C@@H](CC(F)(F)F)C(=O)N(C)[C@H](C(=O)N(C)C)CC(=O)N1C [PP3003] | A (a compound having 10 or more and less than 20 is denoted as A) | AA (a compound having 20 or more is denoted as AA) | 0.72 |
| CCC[C@H]1C(=O)N[C@@H]([C@@H](C)CC)C(=O)N(C)CC(=O)N(C)[C@H]2C/C=C\CCN(C2=O)[C@@H](Cc2ccc(C)cc2)C(=O)N(C)CC(=O)N[C@@H](CCc2ccc(C(F)(F)F)c(OC)c2)C(=O)N2C[C@H](OCC)C[C@H]2C(=O)NC2(CC(C)(C)C2)C(=O)N(C)[C@@H]([C@@H](C)CC)C(=O)N(C)[C@H](C(=O)N(C)C)CC(=O)N1C [PP3006] | A (a compound having 10 or more and less than 20 is denoted as A) | A (a compound having 10 or more and less than 20 is denoted as A) | 0.41 |
| CCC[C@H]1C(=O)N[C@@H]([C@@H](C)CC)C(=O)N(C)CC(=O)N(C)[C@H]2C/C=C\CCN(C2=O)[C@@H](Cc2ccc(C)cc2)C(=O)N(C)CC(=O)N[C@@H](CCc2ccc(C(F)(F)F)c(OC)c2)C(=O)N2CC3(CC3)C[C@H]2C(=O)NC2(CC(C)(C)C2)C(=O)N(C)[C@@H](CC(F)(F)F)C(=O)N(C)[C@H](C(=O)N(C)C)CC(=O)N1C [PP3012] | A (a compound having 10 or more and less than 20 is denoted as A) | A (a compound having 10 or more and less than 20 is denoted as A) | 1.9 |
| CCC[C@H]1C(=O)N[C@@H](C2CCCCC2)C(=O)N(C)CC(=O)N(C)[C@H]2C/C=C\CCN(C2=O)[C@@H](Cc2ccc(C(F)(F)F)cc2)C(=O)N(C)CC(=O)N[C@@H](CCc2ccc(C(F)(F)F)c(Cl)c2)C(=O)N2C[C@H](OCC)C[C@H]2C(=O)NC2(CC(C)(C)C2)C(=O)N(C)[C@@H](CC(C)(C)C)C(=O)N(C)[C@H](C(=O)N(C)C)CC(=O)N1C [PP3014] | A (a compound having 10 or more and less than 20 is denoted as A) | AA (a compound having 20 or more is denoted as AA) | 0.37 |
| CCC[C@H]1C(=O)N[C@@H](C2CCCCC2)C(=O)N(C)CC(=O)N(C)[C@H]2C/C=C\CCN(C2=O)[C@@H](Cc2ccc(C(F)(F)F)cc2)C(=O)N(C)CC(=O)N[C@@H](CCc2ccc(C(F)(F)F)c(Cl)c2)C(=O)N2C[C@H](OCC)C[C@H]2C(=O)NC2(CC(C)(C)C2)C(=O)N(C)[C@@H]([C@@H](C)CC)C(=O)N(C)[C@H](C(=O)N(C)C)CC(=O)N1C [PP3015] | A (a compound having 10 or more and less than 20 is denoted as A) | AA (a compound having 20 or more is denoted as AA) | 2.2 |
| CCC[C@H]1C(=O)N[C@@H](C2CCCCC2)C(=O)N(C)CC(=O)N(C)[C@H]2C/C=C\CCN(C2=O)[C@@H](Cc2ccc(C(F)(F)F)cc2)C(=O)N(C)CC(=O)N[C@@H](CCc2ccc(C(F)(F)F)c(Cl)c2)C(=O)N2C[C@H](OCC)C[C@H]2C(=O)NC2(CC(C)(C)C2)C(=O)N(C)[C@@H](CC(C)C)C(=O)N(C)[C@H](C(=O)N(C)C)CC(=O)N1C [PP3017] | A (a compound having 10 or more and less than 20 is denoted as A) | AA (a compound having 20 or more is denoted as AA) | 1.5 |
| CCC[C@H]1C(=O)N[C@@H](C2CCOCC2)C(=O)N(C)CC(=O)N(C)[C@H]2C/C=C\CCN(C2=O)[C@@H](Cc2ccc(C(F)(F)F)cc2)C(=O)N(C)CC(=O)N[C@@H](CCc2ccc(C(F)(F)F)c(Cl)c2)C(=O)N2C[C@H](OCC)C[C@H]2C(=O)NC2(CC(C)(C)C2)C(=O)N(C)[C@@H](CC(C)(C)C)C(=O)N(C)[C@H](C(=O)N(C)C)CC(=O)N1C [PP3022] | A (a compound having 10 or more and less than 20 is denoted as A) | AA (a compound having 20 or more is denoted as AA) | 0.59 |
| CCC[C@H]1C(=O)N[C@@H]([C@@H](C)CC)C(=O)N(C)CC(=O)N(C)[C@H]2C/C=C\CCN(C2=O)[C@@H](Cc2ccc(C(F)(F)F)cc2)C(=O)N(C)CC(=O)N[C@@H](CCc2ccc(Cl)c(Cl)c2)C(=O)N2CCCCC[C@H]2C(=O)NC2(CC(C)(C)C2)C(=O)N(C)[C@@H](C(CC)CC)C(=O)N(C)[C@H](C(=O)N(C)C)CC(=O)N1C [PP3031] | A (a compound having 10 or more and less than 20 is denoted as A) | AA (a compound having 20 or more is denoted as AA) | 1.9 |
| CCO[C@@H]1C[C@H]2C(=O)NC3(CC(C)(C)C3)C(=O)N(C)[C@@H](C(CC)CC)C(=O)N(C)[C@H](C(=O)N(C)C)CC(=O)N(C)[C@H]3CCCCCCc4ccc(cc4)C[C@@H](C(=O)N(C)CC(=O)N[C@@H](CCc4ccc(C(F)(F)F)c(OC)c4)C(=O)N2C1)N1CC/C=C\C[C@@H](C1=O)N(C)C(=O)CN(C)C(=O)[C@H]([C@@H](C)CC)NC3=O [PP3032] | A (a compound having 10 or more and less than 20 is denoted as A) | AA (a compound having 20 or more is denoted as AA) | 0.1 |
| CCO[C@@H]1C[C@H]2C(=O)NC3(CCC3)C(=O)N(C)[C@@H](C3CCCC3)C(=O)N(C)[C@H](C(=O)N3CCCCC3)CC(=O)N(C)[C@H]3CCCCCCc4ccc(cc4)C[C@@H](C(=O)N(C)CC(=O)N[C@@H](CCc4ccc(C(F)(F)F)c(OC)c4)C(=O)N2C1)N1CC/C=C\C[C@@H](C1=O)N(C)C(=O)CN(C)C(=O)[C@H]([C@@H](C)CC)NC3=O [PP3033, (1S,7S,11R,13S,19S,22S,26S,29S,35S,37Z)-19-cyclopentyl-11-ethoxy-7-[2-[3-methoxy-4-(trifluoromethyl)phenyl]ethyl]-3,18,21,25,31,34-hexamethyl-29-[(1S)-1-methylpropyl]-22-(piperidine-1-carbonyl)spiro[3,6,9,15,18,21,25,28,31,34,41-undecazapentacyclo[24.15.11.2^43,46.1^35,41.0^9,13]pentapentaconta-37,43(54),44,46(53)-tetraene-16,1′-cyclobutane]-2,5,8,14,17,20,24,27,30,33,55-undecone] | B (a compound having 3 or more and less than 10 is denoted as B) | A (a compound having 10 or more and less than 20 is denoted as A) | 0.18 |
| CCO[C@@H]1C[C@H]2C(=O)NC3(CC(C)(C)C3)C(=O)N(C)[C@@H](C3CCCC3)C(=O)N(C)[C@H](C(=O)N3CCCC3)CC(=O)N(C)[C@H]3CCCCCCc4ccc(cc4)C[C@@H](C(=O)N(C)CC(=O)N[C@@H](CCc4ccc(C(F)(F)F)c(OC)c4)C(=O)N2C1)N1CC/C=C\C[C@@H](C1=O)N(C)C(=O)CN(C)C(=O)[C@H]([C@@H](C)CC)NC3=O [PP3034, (1S,7S,11R,13S,19S,22S,26S,29S,35S,37Z)-19-cyclopentyl-11-ethoxy-7-[2-[3-methoxy-4-(trifluoromethyl)phenyl]ethyl]-3,3′,3′,18,21,25,31,34-octamethyl-29-[(1S)-1-methylpropyl]-22-(pyrrolidine-1-carbonyl)spiro[3,6,9,15,18,21,25,28,31,34,41-undecazapentacyclo[24.15.11.2^43,46.1^35,41.0^9,13]pentapentaconta-37,43(54),44,46(53)-tetraene-16,1′-cyclobutane]-2,5,8,14,17,20,24,27,30,33,55-undecone] | B (a compound having 3 or more and less than 10 is denoted as B) | A (a compound having 10 or more and less than 20 is denoted as A) | 0.11 |
